Literature values in patent US20240398940A1, “NOVEL LIPID NANOPARTICLES FOR DELIVERY OF NUCLEIC ACIDS” (CureVac SE, priority 2021, published 2024).
Like-named read-outs stand apart in the source and are kept apart here.

Experiments:
[1] = in vivo

Row | charge (pH 4) | charge (pH 7) | accumulation in tissue [1] | excretion [1] | Compound
1 | positive charge | neutral charge | – | – | Cc1c(C)c2c(c(C)c1OC(=O)CCC(=O)OCCC1CCN(CCSSCCN3CCC(CCOC(=O)CCC(=O)Oc4c(C)c(C)c5c(c4C)CCC(C)(CCCC(C)CCCC(C)CCCC(C)C)O5)CC3)CC1)CCC(C)(CCCC(C)CCCC(C)CCCC(C)C)O2 (stereo not shown) [C23, COATSOME ® SS-EC]
2 | – | – | no significant accumulation in tissue | rapidly excreted by the kidney | poly(2-methyl-2-oxazoline) [PMOZ]
